Tests used:
hSK2 = hSK2 (Homo sapiens, UniProt Q9H2S1); assay: Assay for compound activity towards hSK channels (86Rb+ efflux); assay type: cell-based; conditions: 86Rb+ efflux stimulated with calcium ionophore; drug 0.01 to 30 μM in EBSS; read-out: hSK2 Inhibitory Activity
Protocol: 20.1 Assay for Compound Activity Towards hSK Channels
Cells expressing small conductance, calcium activated potassium channels, such as SK-like channels were loaded with ^86Rb^+ by culture in media containing ^86RbCl. Following loading, the culture media was removed and the cells were washed in EBSS to remove residual traces of ^86Rb^+. Cells were preincubated with the drug (0.01 to 30 μM in EBSS) and then ^86Rb^+ efflux was stimulated by exposing cells to EBSS solution supplemented with a calcium ionophore, such as ionomycin, in the continued presence of the drug. After a suitable efflux period, the EBSS/ionophore solution was removed from the cells and the ^86Rb^+ content was determined by Cherenkov counting (Wallac Trilux). Cells were then lysed with a SDS solution and the ^86Rb^+ content of the lysate was determined. Percent ^86Rb^+ efflux was calculated according to the following equation: (^86Rb^+ content in EBSS/(^86Rb^+ content in EBSS+^86Rb^+ content of the lysate))×100 20.2 Results

[1] = molecular target: T1, recombinant human SK4 (hIK1 or hKCa4) channels (Homo sapiens, UniProt O15554+P0DP23); conditions: applied to the inside of SK4 channel-expressing membrane patches; cited from earlier work
T1 construct: host or cells: HEK 293

SK2 subtype channels = SK2 subtype channels (Rattus norvegicus, UniProt P70604); conditions: patch clamp; cited from earlier work

Row | Compound | IC50 (hSK2) [µM] | further results
1 | COc1cnc(-c2ccccn2)nc1Nc1ccc(-c2ccccc2)cn1 [(5-Methoxy-2-pyridin-2-yl-pyrimidin-4-yl)-(5-phenyl-pyridin-2-yl)-amine] | 0.1 to 1 | 
2 | COc1cnc(-c2ccccn2)nc1Nc1ccc(N)cn1 [N^2-(5-Methoxy-2-pyridin-2-yl-pyrimidin-4-yl)-pyridine-2,5-diamine] | < 0.1 | 
3 | Cc1cccc(-c2nccc(Nc3ccccn3)n2)n1 [[2-(6-methyl-pyridin-2-yl)-pyrimidin-4-yl]-pyridin-2-yl-amine] | 1 to 5 | 
4 | lead |  | activation of SK4 channels [1]: activated SK4 channels in a concentration-dependent manner
5 | Barium |  | activation of SK4 channels [1]: activated SK4 channels in a concentration-dependent manner
6 | COc1cnc(-c2ccccn2)nc1Nc1ccc(-c2cccs2)cn1 [(5-Methoxy-2-pyridin-2-yl-pyrimidin-4-yl)-(5-thiophen-2-yl-pyridin-2-yl)-amine] | < 0.1 | 
7 | COc1cnc(-c2ccccn2)nc1Nc1ccc(N2CCCC2)cn1 [(5-Methoxy-2-pyridin-2-yl-pyrimidin-4-yl)-(5-pyrrolidin-1-yl-pyridin-2-yl)-amine] | < 0.1 | 
8 | CN(c1ccccn1)c1nccc(-c2ccccn2)n1 [Methyl-pyridin-2-yl-(4-pyridin-2-yl-pyrimidin-2-yl)-amine] | 5 to 30 | 
9 | Clc1ccc(Nc2nccc(-c3ccccn3)n2)nc1 [(5-Chloro-pyridin-2-yl)-(4-pyridin-2-yl-pyrimidin-2-yl)-amine] | 0.1 to 1 | 
10 | COc1ccc(Nc2nc(-c3ccccn3)ncc2OC)nc1 [(5-Methoxy-pyridin-2-yl)-(5-methoxy-2-pyridin-2-yl-pyrimidin-4-yl)-amine] | < 0.1 | 
11 | Cc1nc(-c2ccccn2)nc(Nc2ccc(C(F)(F)F)cn2)c1Cl [(5-Chloro-6-methyl-2-pyridin-2-yl-pyrimidin-4-yl)-(5-trifluoromethyl-pyridin-2-yl)-amine] | 5 to 30 | 
12 | CN(C)CCC=C1c2ccccc2CCc2ccccc21 [amitriptyline] |  | block of SK2 channel currents (SK2 subtype channels): block SK2 channel currents with micromolar affinity
13 | cadmium |  | activation of SK4 channels [1]: activated SK4 channels in a concentration-dependent manner
14 | COc1cnc(-c2ccccn2)nc1Nc1ccc(Br)cn1 [(5-Bromo-pyridin-2-yl)-(5-methoxy-2-pyridin-2-yl-pyrimidin-4-yl)-amine] | 5 to 30 | 
15 | c1ccc(-c2ccc(Nc3nccc(-c4ccccn4)n3)nc2)cc1 [(5-Phenyl-pyridin-2-yl)-(4-pyridin-2-yl-pyrimidin-2-yl)-amine] | 0.1 to 1 | 
16 | COc1cnc(-c2ccccn2)nc1Nc1ccc(-c2ccc(C)o2)cn1 [(5-Methoxy-2-pyridin-2-yl-pyrimidin-4-yl)-[5-(5-methyl-furan-2-yl)-pyridin-2-yl]-amine] | 0.1 to 1 | 
17 | cobalt |  | activation of SK4 channels [1]: did not activate
18 | Cc1ccnc(Nc2nccc(-c3ccccn3)n2)c1 [(4-Methyl-pyridin-2-yl)-(4-pyridin-2-yl-pyrimidin-2-yl)-amine] | < 0.1 | 
19 | COc1cnc(-c2ccccn2)nc1NNc1ccccn1 [N-(5-Methoxy-2-pyridin-2-yl-pyrimidin-4-yl)-N′-pyridin-2-yl-hydrazine] | 5 to 30 | 
20 | Clc1ccc(Nc2ccnc(-c3ccccn3)n2)nc1 [(5-Chloro-pyridin-2-yl)-(2-pyridin-2-yl-pyrimidin-4-yl)-amine] | 1 to 5 | 
21 | c1ccc(Nc2nc(-c3ccccn3)nc3ccccc23)nc1 [Pyridin-2-yl-(2-pyridin-2-yl-quinazolin-4-yl)-amine] | 0.1 to 1 | 
22 | COc1cnc(-c2ccccn2)nc1Nc1cc(C)ccn1 [(5-Methoxy-2-pyridin-2-yl-pyrimidin-4-yl)-(4-methyl-pyridin-2-yl)-amine] | < 0.1 | 
23 | c1ccc(Nc2nc(-c3ccccn3)c3ccccc3n2)nc1 [Pyridin-2-yl-(4-pyridin-2-yl-quinazolin-2-yl)-amine] | 5 to 30 | 
24 | FC(F)(F)c1ccc(Nc2nccc(-c3ccccn3)n2)nc1 [(4-Pyridin-2-yl-pyrimidin-2-yl)-(5-trifluoromethyl-pyridin-2-yl)-amine] | 5 to 30 | 

Row | Compound | IC50 (hSK2) [µM] | further results
25 | Clc1cc(-c2ccccn2)nc(-c2ccccn2)n1 [4-Chloro-2,6-di-pyridin-2-yl-pyrimidine] | 1 to 5 | 
26 | c1ccc(Nc2cc(-c3ccccn3)nc(-c3ccccn3)n2)nc1 [(2,6-Di-pyridin-2-yl-pyrimidin-4-yl)-pyridin-2-yl-amine] | 5 to 30 | 
27 | COc1cnc(-c2ccccn2)nc1Nc1ccc(N2CCCC2=O)cn1 [1-[6-(5-Methoxy-2-pyridin-2-yl-pyrimidin-4-ylamino)-pyridin-3-yl]-pyrrolidin-2-one] | < 0.1 | 
28 | COc1cnc(-c2ccccn2)nc1Nc1ccc(Cl)cn1 [(5-Chloro-pyridin-2-yl)-(5-methoxy-2-pyridin-2-yl-pyrimidin-4-yl)-amine] | 0.1 to 1 | 
29 | COc1cnc(-c2ccccn2)nc1Nc1ccc([N+](=O)[O-])cn1 [(5-Methoxy-2-pyridin-2-yl-pyrimidin-4-yl)-(5-nitro-pyridin-2-yl)-amine] | 5 to 30 | 
30 | COc1cnc(-c2ccccn2)nc1Nc1ccc(N2CCC(C)CC2)cn1 [(5-Methoxy-2-pyridin-2-yl-pyrimidin-4-yl)-(4-methyl-3,4,5,6-tetrahydro-2H-[1,3′]bipyridinyl-6′-yl)-amine] | < 0.1 | 
31 | COc1cnc(-c2ccccn2)nc1Nc1ccc(F)cn1 [(5-Fluoro-pyridin-2-yl)-(5-methoxy-2-pyridin-2-yl-pyrimidin-4-yl)-amine] | 0.1 to 1 | 
32 | iron |  | activation of SK4 channels [1]: did not activate
33 | COc1cnc(-c2ccccn2)nc1Nc1ccccn1 [(5-Methoxy-2-pyridin-2-yl-pyrimidin-4-yl)-pyridin-2-yl-amine] | 0.1 to 1 | 
34 | Cc1cc(Nc2ccccn2)nc(-c2ccccn2)n1 [(6-methyl-2-pyridin-2-yl-pyrimidin-4-yl)-pyridin-2-yl-amine] | 5 to 30 | 
35 | magnesium |  | activation of SK4 channels [1]: did not activate
36 | zinc |  | activation of SK4 channels [1]: did not activate
37 | COc1cnc(-c2ccccn2)nc1Nc1ccc(-c2cccc(F)c2)cn1 [[5-(3-Fluoro-phenyl)-pyridin-2-yl]-(5-methoxy-2-pyridin-2-yl-pyrimidin-4-yl)-amine] | 0.1 to 1 | 
38 | COc1cnc(-c2ccccn2)nc1Nc1ccc(N2CCN(C)CC2)cn1 [(5-Methoxy-2-pyridin-2-yl-pyrimidin-4-yl)-[5-(4-methyl-piperazin-1-yl)-pyridin-2-yl]-amine] | 0.1 to 1 | 
39 | calcium |  | activation of SK4 channels [1]: activated SK4 channels in a concentration-dependent manner
40 | NC(=O)N1c2ccccc2C=Cc2ccccc21 [carbamazepine] |  | block of SK2 channel currents (SK2 subtype channels): block SK2 channel currents with micromolar affinity
41 | strontium |  | activation of SK4 channels [1]: activated SK4 channels in a concentration-dependent manner
42 | Nc1c2c(nc3ccccc13)CCCC2 [tacrine] |  | block of SK2 channel currents (SK2 subtype channels): block SK2 channel currents with micromolar affinity
43 | COc1cnc(-c2ccccn2)nc1Nc1ccc(N(C)C)cn1 [N^2-(5-Methoxy-2-pyridin-2-yl-pyrimidin-4-yl)-N5,N5-dimethyl-pyridine-2,5-diamine] | 0.1 to 1 | 
44 | c1ccc(Nc2nccc(-c3ccccn3)n2)nc1 [Pyridin-2-yl-(4-pyridin-2-yl-pyrimidin-2-yl)-amine] | < 0.1 | 
45 | FC(F)(F)c1ccc(Nc2cc(-c3ccccn3)nc(-c3ccccn3)n2)nc1 [(2,6-Di-pyridin-2-yl-pyrimidin-4-yl)-(5-trifluoromethyl-pyridin-2-yl)-amine] | 5 to 30 | 
46 | COc1cnc(-c2ccccn2)nc1Nc1ccc(C(F)(F)F)cn1 [(5-Methoxy-2-pyridin-2-yl-pyrimidin-4-yl)-(5-trifluoromethyl-pyridin-2-yl)-amine] | 5 to 30 | 
47 | COc1cnc(-c2ccccn2)nc1Nc1ccc(-c2ccsc2)cn1 [(5-Methoxy-2-pyridin-2-yl-pyrimidin-4-yl)-(5-thiophen-3-yl-pyridin-2-yl)-amine] | < 0.1 | 
48 | Cc1cccc(-c2ccnc(Nc3ccccn3)n2)n1 [[4-(6-methyl-pyridin-2-yl)-pyrimidin-2-yl]-pyridin-2-yl-amine] | 1 to 5 | 
